Data: US20040204863A1, “Crystal of a kinase-ligand complex and methods of use” (priority 1999, published 2004)

Legend:
Lck = Lck (Homo sapiens, UniProt P06239); conditions: reported in [51]; cited from earlier work
[1] = test system: IL-2 production in hPBL T-cells; assay: T-cell activation: TCR-induced IL-2 secretion (ELISA); assay type: cell-based; conditions: human T-cell cultures, anti-CD3/anti-CD28 stimulation, 20 hours, FIG. 7B; read-out: IC50 inhibition of IL-2 production
Method: T-cell activation. Whole blood was obtained from normal donors and human peripheral blood lymphocytes (hPBL) were isolated by ficol-hypaque density centrifugation. T-cells were then purified from the hPBL by negative selection using an R&D column following the manufacturers directions (R&D Systems, Minneapolis, Minn.). A 96-well flat-bottomed plate was coated with 10 μg/ml of goat anti-mouse (GAM)-IgG1 (Caltag, Burlingame, Calif.) in PBS overnight at 4C. The GAM-coated plate was flicked out and anti-CD3 mAb (UCHT-1, Coulter/Immunotech, Miami, Fla.) is added at 0.2 μg/ml in AIMV medium (Gibco, Grand Island, N.Y.) for 3 hr. at 37C. Purified T-cells were pre-incubated at 1×10^5/well in AIM V with or without compound for 30 minutes then transferred to the anti-CD3 capture plate. Finally, anti-CD28 (Pharmingen, San Diego, Calif.) in AIMV (150 ng/ml final) was added to each well. Cells were incubated for 20 hours at 37C in 5% CO2 then supernatants were tested by ELISA for cytokine levels (Endogen, Woburn, Mass.).

[2] = test system: TCR ζ-chain (p23) and 70 kD protein phosphorylation in Jurkat cells; assay type: cell-based; conditions: TCR-induced phosphotyrosine, western blot, FIG. 7C
Method: Phosphotyrosine western blotting. […] Cells were then transferred to 37° C. water bath for 1 minute. Stimulation was stopped by the addition of 5 volumes of cold PBS containing 200 μM sodium orthovanadate. Cells were spun down and lysed in 150 mM Tris/10 mM HEPES buffer, pH 7.3, containing 1% Triton X-100 and Complete protease inhibitor cocktail (Boehringer Mannheim, Germany) for 30 minutes on ice. […] Blots were probed with anti-phosphotyrosine (4G10, Upstate Biotechnology, Inc., Saranac Lake, N.Y.) and developed using ECL-plus following the manufacturers directions (Amersham, Arlington Heights, Ill.).

ZAP-70 = biological target: T1, ZAP-70 (Homo sapiens, UniProt P43403); conditions: reported in [51]; cited from earlier work
T1 sequence (P43403 1-619): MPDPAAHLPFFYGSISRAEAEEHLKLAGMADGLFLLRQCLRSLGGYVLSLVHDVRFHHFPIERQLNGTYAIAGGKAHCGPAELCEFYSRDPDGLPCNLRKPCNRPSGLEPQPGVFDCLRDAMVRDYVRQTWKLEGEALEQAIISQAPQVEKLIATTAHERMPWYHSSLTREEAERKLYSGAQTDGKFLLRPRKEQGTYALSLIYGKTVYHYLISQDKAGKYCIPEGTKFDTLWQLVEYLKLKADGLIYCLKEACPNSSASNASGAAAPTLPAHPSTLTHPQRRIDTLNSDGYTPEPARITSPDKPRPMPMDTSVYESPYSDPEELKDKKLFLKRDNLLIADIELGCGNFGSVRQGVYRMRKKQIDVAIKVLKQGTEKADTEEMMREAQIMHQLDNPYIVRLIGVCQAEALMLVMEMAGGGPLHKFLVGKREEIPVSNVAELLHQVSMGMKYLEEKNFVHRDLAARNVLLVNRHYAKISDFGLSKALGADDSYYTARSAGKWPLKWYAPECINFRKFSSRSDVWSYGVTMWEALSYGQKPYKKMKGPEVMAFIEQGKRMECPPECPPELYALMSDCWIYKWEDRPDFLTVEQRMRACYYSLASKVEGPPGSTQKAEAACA

Sequence of Lck (P06239 whole entry, species assumed): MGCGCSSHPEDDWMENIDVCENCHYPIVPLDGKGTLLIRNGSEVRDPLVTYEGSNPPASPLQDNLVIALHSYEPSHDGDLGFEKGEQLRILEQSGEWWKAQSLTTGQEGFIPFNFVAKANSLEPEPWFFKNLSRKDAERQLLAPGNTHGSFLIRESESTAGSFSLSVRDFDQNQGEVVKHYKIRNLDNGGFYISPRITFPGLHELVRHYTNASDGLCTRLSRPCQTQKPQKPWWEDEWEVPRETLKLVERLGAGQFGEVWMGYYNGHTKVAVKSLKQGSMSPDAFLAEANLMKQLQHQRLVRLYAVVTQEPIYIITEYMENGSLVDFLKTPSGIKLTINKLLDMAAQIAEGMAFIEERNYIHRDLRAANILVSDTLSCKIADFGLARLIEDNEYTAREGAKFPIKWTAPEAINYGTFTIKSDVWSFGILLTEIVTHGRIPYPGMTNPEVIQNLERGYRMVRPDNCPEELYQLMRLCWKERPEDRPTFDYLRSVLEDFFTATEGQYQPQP

Cc1ccc(-c2nn(C(C)(C)C)c3ncnc(N)c23)cc1 [PP1]
inhibitory activity against Lck compared with PP2 (Lck): approximately the same inhibitory activity against Lck

CC(C)(C)n1nc(-c2ccc(Cl)cc2)c2c(N)ncnc21 [PP2]
IC50 [1]: 600 nM | inhibition of Lck-dependent phosphorylation of the TCR ζ-chain (p23) [2]: dose-dependent inhibition | inhibition of phosphorylation of a 70 kD protein (likely ZAP-70) [2]: inhibited the phosphorylation of a 70 kD protein | IC50 (ZAP-70): ≥ 100000 nM

CN[C@@H]1C[C@H]2O[C@@](C)([C@@H]1OC)n1c3ccccc3c3c4c(c5c6ccccc6n2c5c31)C(=O)NC4 [staurosporine]
IC50 [1]: 60 nM
